This is an account of results in patent US10925867B2, “Immunotherapeutic dosing regimens comprising pomalidomide and an anti-CS1 antibody for treating cancer” (Bristol-Myers Squibb Company, priority 2015, dated 2021).

Series [1] concerns OPM2 xenograft. As for the experimental part:
FIGS. 4A-B. Study #2 (OPM2-16), Antitumor Activity, Elotuzumab Efficacy in Combination with Pomalidomide and Dexamethasone in OPM2 Multiple Myeloma Xenograft. Mice with established OPM2 xenograft tumors were randomized into 2 groups with 8 mice per group and were administered one of the following sets of regimens: (A) Control group was left untreated (filled circles), elotuzumab (0.5 mg/kg, twice weekly IP for 6 doses starting d12, open circles), dexamethasone (5 mg/kg, daily IP for 7 doses starting on d12, open triangles), elotuzumab (0.5 mg/kg, twice weekly IP for 8 doses starting d12) plus dexamethasone combination (filled triangles), pomalidomide (5 mg/kg, daily for 5 days orally starting on d12 and then again for 5 days on d19) plus dexamethasone combination (dashes); or (B) Control group was left untreated (filled circles), elotuzumab (0.5 mg/kg, twice weekly IP for 6 doses starting d12, open circles), pomalidomide (5 mg/kg, daily for 5 days orally starting on d12 and then again for 5 days on d19, open squares), elotuzumab (0.5 mg/kg, twice weekly IP for 8 doses starting d12) plus pomalidomide combination (filled squares), elotuzumab (0.5 mg/kg, twice weekly IP for 8 doses starting d12) plus pomalidomide plus dexamethasone combination (x's). The data are presented as means+/−standard deviation.
FIGS. 5A-H. Study #2 (OPM2-16), Anti Tumor Activity of Elotuzumab, Pomalidomide, and Dexamethasone as Single Agent and Combination Treatment in OPM2 Multiple Myeloma Xenograft tumor model. Mice with established OPM2 xenograft tumors were randomized into groups with 8 mice per group and were administered one of the following regimens: (A): untreated (control); (B): elotuzumab; (C): pomalidomide; (D): dexamethasone; (E): elotuzumab plus pomalidomide; (F): elotuzumab plus dexamethasone; (G): pomalidomide plus dexamethasone; or (H): elotuzumab plus pomalidomide plus dexamethasone. Data represent tumor weight measured in individual animals. Dosing route and regimen are described in FIG. 4 and Example 1.
(§1) Animals: All mice were obtained from Taconic Biosciences (Germantown, N.Y.), and maintained in ammonia-free environment in a defined and pathogen-free colony. All animal procedures were approved by the Bristol-Myers Squibb (BMS) Institutional Animal Care and Use Committee. The animal care and use program at BMS has been fully accredited by the Association for Assessment and Accreditation of Laboratory Animal Care International (AAALAC).
(§2) Animal Models: The human tumor xenograft OPM2 was grown in IcrTac scid mice (ICRPrkdcscid). Treated animals were checked daily for treatment related toxicity/mortality. Each group of animals was weighed before the initiation of treatment (Wt1) and then weighed again following the last treatment dose (Wt2). The difference in body weight (Wt2-Wt1) provides a measure of treatment-related toxicity. Additional weights were recorded at each measurement date to monitor toxicity.
(§3) Tumor response was determined by measurement of tumors with a caliper twice a week, until the tumors reached a predetermined “target” size of 1 gm. Tumor weights (mg) were estimated from the formula: Tumor weight=(length×width2)/2.
(§4) Tumor response end-point was expressed in terms of tumor cell kill and tumor growth inhibition. Tumor growth delay was defined as the difference in time (days) required for the treated tumors (T) to reach a predetermined target size compared to those in the control group (C). For this purpose tumor weight of a group was expressed as […] tumor weight (MTW).
(§5) Tumor cell kill was expressed in terms of log cell kill (LCK), represented by the equation LCK=[…] where tumor volume doubling time (TVDT) was first calculated with the formula: TVDT=Median time (days) for control tumor weight to reach target size−Median time (days) for control tumor weight to reach half the target size.

Series [2] relates to OPM2 xenograft. On the procedure:
Mice with established OPM2 xenograft tumors were randomized into 2 groups with 8 mice per group and were administered one of the following sets of regimens: (A) Control group was left untreated (filled circles), elotuzumab (0.5 mg/kg, twice weekly IP for 7 doses starting d16, open circles), dexamethasone (5 mg/kg, daily IP for 7 doses starting on d16, open triangles), elotuzumab plus dexamethasone combination (filled triangles), pomalidomide (5 mg/kg, daily for 5 days orally starting on d16 and then again for 5 days on d23) plus dexamethasone combination (dashes); or (B) Control group was left untreated (filled circles), elotuzumab (0.5 mg/kg, twice weekly IP for 7 doses starting d16, open circles), pomalidomide (5 mg/kg, daily for 5 days orally starting on d16 and then again for 5 days on d23, open squares), elotuzumab (0.5 mg/kg, twice weekly IP for 10 doses starting d16) plus pomalidomide combination (filled squares), elotuzumab (10 doses) plus pomalidomide plus dexamethasone combination (x's). The data are presented as means+/−standard deviation.
Mice with established OPM2 xenograft tumors were randomized into groups with 8 mice per group and were administered one of the following regimens: (A): untreated (control); (B): elotuzumab; (C): pomalidomide; (D): dexamethasone; (E): elotuzumab plus pomalidomide; (F): elotuzumab plus dexamethasone; (G): pomalidomide plus dexamethasone; or (H): elotuzumab plus pomalidomide plus dexamethasone. Data represent tumor weight measured in individual animals. Dosing route and regimen are described in FIG. 2 and Example 1.
as §1, §2, §3, §4, §5
The source holds these as a separate data set.

The test system of series [3] is refractory or relapsed and refractory MM. The settings on record: MM-003; cited from earlier work.
For series [4], the system named is multiple myeloma. The settings on record: cited from earlier work.
Series [5] deals with multiple myeloma. The settings on record: treated multiple myeloma patients; cited from earlier work.
[6] abbreviates: Study #2, ELO 0.5, POM 5, DEX 5 mg/kg, mice of 8.
[7] abbreviates: Study #1, ELO 0.5, POM 5, DEX 5 mg/kg, mice of 8.
The mark [8] stands for this setting: in combination with dexamethasone as induction therapy before ASCT.
[9] abbreviates: three-drug induction: bortezomib-dexamethasone plus the named drug.

Like-named read-outs stand apart in the source and are kept apart here.

Consider `C[C@@H]1C[C@H]2[C@@H]3CCC4=CC(=O)C=C[C@]4(C)[C@@]3(F)[C@@H](O)C[C@]2(C)[C@@]1(O)C(=O)CO` [Dexamethasone], for which the “Median Days to Target Size” value in series [1] (Study #2, ELO 0.5 mg/kg IP 2QW from d12, POM 5 mg/kg PO QD × 5 d12, 19, DEX 5 mg/kg IP QD × 7 from d12, target size 1 gm) is 25.7 days. Further, in series [1] (Study #2, ELO 0.5, POM 5, DEX 5 mg/kg), the LCK is on record as 0.63. For the same compound, in series [1] (setting [6]), the “CR (complete tumor regressions)” value is 0/8 and the “PR (partial tumor regressions)” value is listed as 0/8. Also, the TGI in series [1] (Study #2, ELO 0.5, POM 5, DEX 5 mg/kg, versus untreated mice) was found to be 62.8%. In addition, the “Max % Weight Loss” value in series [1] (mouse, in vivo) is −9.0%. In addition, in series [2] (Study #1, ELO 0.5 mg/kg IP 2QW from d16, POM 5 mg/kg PO QD × 5 d16, 23, DEX 5 mg/kg IP QD × 7 from d16, target size 1 gm), the “Median Days to Target Size” value is 28.0 days. Also, the LCK in series [2] (Study #1, ELO 0.5, POM 5, DEX 5 mg/kg) is 0.14. Besides, in series [2] (setting [7]), the “CR (complete tumor regressions)” value is 0/8 and the “PR (partial tumor regressions)” value was 0/8. For the same compound, in series [2] (Study #1, ELO 0.5, POM 5, DEX 5 mg/kg, versus untreated mice), the TGI was 50.4%. Besides, the “Max % Weight Loss” value in series [2] (mouse, in vivo) is listed as −5.7%. For the same compound, in series [3], the “grade 3-4 anemia” value was 37%, the “grade 3-4 bone pain” value is on record as 5%, the “grade 3-4 fatigue” value is listed as 6% and the “grade 3-4 neutropenia” value is given as 16%. In addition, in series [3], the “grade 3-4 pneumonia” value was 8% and the “grade 3-4 thrombocytopenia” value is 26%.
For `Nc1cccc2c1CN(C1CCC(=O)NC1=O)C2=O` (stereo not drawn) [lenalidomide], the “rates of nearly CR” value in series [4] (setting [8]) was 15%; in series [4] (setting [9]), 57%. The response rate in series [5] was 40%-50%.
For `O=P1(N(CCCl)CCCl)NCCCO1` (stereo not drawn) [cyclophosphamide], in series [4] (setting [9]), the “rates of nearly CR” value is 39%.
For `COc1cccc2c1C(=O)c1c(O)c3c(c(O)c1C2=O)C[C@@](O)(C(=O)CO)C[C@@H]3O[C@H]1C[C@H](N)[C@H](O)[C@H](C)O1` [doxorubicin], the “rates of nearly CR” value in series [4] (setting [9]) is recorded as 7%.
On to `CC(C)C[C@H](NC(=O)[C@H](Cc1ccccc1)NC(=O)c1cnccn1)B(O)O` [bortezomib], for which, in series [4] (setting [8]), the “rates of nearly CR” value was 16%. The response rate in series [5] is listed as 38%.
Consider `O=C1CCC(N2C(=O)c3ccccc3C2=O)C(=O)N1` (stereo not drawn) [thalidomide], for which the “rates of nearly CR” value in series [4] (setting [8]) is given as 8%; in series [4] (setting [9]), 32%.
